Test results as given in US20100248224A1, “DNA FRAGMENTATION ASSAY” (priority 2006, published 2010).

Columns and labels:
Format in all cases: cell-based, human
[1] = system: HL-60 cells; assay: ELISA detection of DNA fragmentation in HL-60 cell lysates (Cell Death Detection ELISA kit); conditions: HL-60 cells 0.3 million cells/ml, treated 20 hours, FIG. 5, read-out: EC50 value, DNA fragmentation determined by ELISA
[2] = system: HL-60 cells; assay: PicoGreen detection of DNA fragmentation in HL-60 cell lysates; conditions: for EC50: HL-60 cells 0.3 million cells/ml, treated 20 hours, FIG. 3, read-out: EC50 value, DNA fragmentation detected with PicoGreen
Procedure: An equal volume of the lysis buffer (20 mM Tris-HCl (pH 8.0), 20 mM EDTA, 0.2% Tween-20 and 5 ug/mL RNase) was added into the total cell culture. […] The dose response curve of camptothecin using PicoGreen detection (FIG. 3) was compared to propidium iodide detection (FIG. 4).

[3] = system: HL-60 cells; assay: Inhibition of camptothecin-induced DNA fragmentation in HL-60 cells, PicoGreen detection; conditions: 20 hours, FIG. 6
Text: Zinc has been known to inhibit apoptosis induced by both chemical and death-receptor agonists. […] DNA fragments released from cells were quantified with PicoGreen reagent as described above. For samples with camptothecin, without zinc chloride or at low concentrations, fluorescence signal was more than 3 fold of that from samples with DMSO treatment.

[4] = system: HL-60 cells; assay: DMSO tolerance in HL-60 cells, PicoGreen fluorescent assay; conditions: 20 hr incubation, 0.3 million cells/mL, FIG. 11
Procedure: HL-60 cells in mid-log phase (0.3 million cells/mL) were treated with different doses of DMSO for 20 hours. An equal volume of the lysis buffer (20 mM Tris-HCl (pH 8.0), 20 mM EDTA, 0.2% Tween-20 and 5 ug/ml. RNase) was added into the total cell culture. The cell lysate was centrifuged at 2000×g for 20 min. The top portion of the supernatant was withdrawn and DNA content was quantitated using the PicoGreen fluorescent assay.

For Neomycin, which EC50 [1] is on record?
The EC50 was > 100000 nM.

What about the EC50 [2] of the same molecule?
The EC50 was > 100000 nM.

Which results are given for CC[C@@]1(O)C(=O)OCc2c1cc1n(c2=O)Cc2cc3ccccc3nc2-1 [camptothecin, Camptothecin]?
EC50 ([1]; Homo sapiens): 1110 nM; PicoGreen fluorescence intensity ([2]; 3.2 uM for 5.5 hours vs 0.1% DMSO, 0.4 million cells/mL, FIG. 1): increased; DNA fragmentation, time course ([2]; 3.2 uM, at 4 hours of treatment, FIG. 8): significant increase in DNA fragmentation; EC50 ([2]; Homo sapiens): 1480 nM; fluorescence signal relative to samples with DMSO treatment ([3]; 3.2 μM camptothecin, without zinc chloride or at low concentrations): more than 3 fold

With [Cl-].[Cl-].[Zn+2] [zinc chloride] as the molecule, how does the “magnitude of camptothecin-induced DNA fragmentation (level of fluorescent signal)” value ([3]; zinc chloride 100 uM or higher, with 3.2 μM camptothecin) read?
The value was “decreased to the same level as samples with DMSO treatment only”.

Which “DMSO concentration tolerated by HL-60 cells” value [4] does the source give for C[S+](C)[O-] [DMSO, dimethyl sulfoxide] here?
The value was “up to 1%”.
